Test results from patent US6835563B1, “Compositions and methods for increasing cholesterol efflux and raising HDL ATP binding cassette transporter protein ABC1” (CV Therapeutics, priority 1999, dated 2004).

Experiments:
[1] = system: normal fibroblasts; assay: HDL- and apo A-I-mediated [3H]cholesterol efflux from normal fibroblasts; assay type: cell-based, human; details: HDL 40 μg protein/ml or apo A-I 10 μg/ml, up to 48 h
Protocol: (§1) Cell Cultures: Human fibroblasts were obtained from skin explants from two normal subjects (NL1) and three unrelated patients with Tangier disease (TD). TD1 cells were obtained from a person with extremely low plasma HDL cholesterol and apo A-I levels and clinical symptoms typical of Tangier disease. […] TD3 cells were obtained from a person with Tangier disease who presented with orange tonsil remnants, asymmetrical motor neuropathy, plasma HDL cholesterol of 5 mg/dL, and LDL cholesterol of 16 mg/dL (Lawn et al., J. Clin. Invest., 104, R25-R31 (1999)). The normal cells and TD subject cells were immortalized as described in Oram et al., J. Lipid. Res., 40: 1769-1781 (1999). Briefly, the cells were transfected with amphotropic retroviruses containing vectors with inserts of human papillomavirus 16-oncogenes E6 and E7 and a neomycin resistance selectable marker. Control cells were infected with vector alone (mock-infected). Pooled cell populations were selected in the presence of G418 for two passages, after which G418 was excluded from the medium. Fibroblasts were used between the fifth and sixteenth passage (primary) or sixth and fourteenth passage (immortalized). The immortalized normal and TD cells were seeded into 16-mm wells or 35-mm dishes and grown to confluence in. Dulbecco's modified. Eagle's medium (DMEM) plus 10% fetal bovine serum (FBS) before experimental use. […]

[2] = system: TD fibroblasts; assay: HDL- and apo A-I-mediated [3H]cholesterol efflux from Tangier disease fibroblasts; assay type: cell-based, human; details: HDL 40 μg protein/ml or apo A-I 10 μg/ml, up to 48 h
Protocol: as §1

[3] = system: ABC1 mRNA; assay: ABC1 mRNA by quantitative RT-PCR in normal fibroblasts; assay type: cell-based, human; details: apo A-I 10 μg/ml 18-24 h
Protocol: (§2) To determine whether ABC1 plays a rate-limiting role in cellular sterol efflux, the synthesis of ABC1 was measured under various cellular conditions related to cholesterol efflux processes. Specifically, normal fibroblasts and TD fibroblasts were individually exposed to conditions of excess cAMP, cholesterol, or Apo A-I. Cell cultures of normal skin fibroblasts and TD1 and TD2 fibroblasts were prepared as described in Example 1. The level of ABC1 mRNA was measured by RT-PCR. Cell cultures: Immortalized cell cultures of normal skin fibroblasts and TD1 and TD2 fibroblasts were prepared as described in Example 1. Cells were grown to subconfluence in DMEM/10% FBS before replacement with DMEM/BSA and the indicated additive for 24 or 48 hours. RNA was prepared as described in Example 2. RT-PCR: Quantitative PCR was carried out using the GeneAmp 5700 Sequence. Detection System (Perkin-Elmer Applied Biosystems, Foster City, Calif.). Briefly, 500 ng of DNase-treated mRNA was reverse transcribed using random hexamer primers at 2.5 μM. Approximately 5% of this reaction was amplified by PCR using the SYBR green core kit (PE. Applied Biosystems, Foster City, Calif.; Cat. #4304886) and human ABC1 primers […] […] The mRNA in each sample was quantitated by detecting the increase in fluorescence caused by SYBR green binding to the double-stranded amplification product generated during each PCR cycle. […]

[4] = system: ABC1 mRNA; assay: ABC1 mRNA by quantitative RT-PCR in TD1 and TD2 fibroblasts; assay type: cell-based, human; details: apo A-I 10 μg/ml
Protocol: as §2

[5] = system: RAW 264.7 cells; assay: Apo A-I-mediated cholesterol efflux from cholesterol-loaded RAW 264.7 macrophage cells; details: control cells, apo A-I only
Protocol: Assay to Measure Lipid Efflux: Apo AI-mediated efflux of cholesterol and, phospholipid was assayed according to the method described in. […] RAW 264.7 cells were cholesterol-loaded through the scavenger receptor by 24-hour incubation with acetylated LDL as described in Smith et al., J. Biol. Chem., 271:30647-30655 (1996). Briefly, RAW 264.7 cells in 24-well dishes were cholesterol-loaded and labeled overnight in 0.5 ml of DMEM supplemented with 50 μl/ml 1M glucose, 10 μl/ml 200 mM glutamine and 2% BSA and with 50 μg/ml acetylated low density lipoprotein (AcLDL) and [^3H]-cholesterol which had been pre-incubated for 30 minutes at 37° C. with AcLDL to yield a final concentration of 0.33 μCi/ml [^3H]-cholesterol. Cells were subsequently washed five times with PBS containing 1% BSA and incubated overnight (16-18 hours) in DMEM/BSA to allow for equilibrium of cholesterol pools. After equilibrium of cholesterol pools, cells were rinsed four times with PBS/BSA and incubated for one hour at 37° C. with DMEM/BSA before the efflux incubations. Efflux medium (DMEM/BSA) containing either albumin alone (control), albumin plus HDL (40 μg protein/ml), or albumin plus apo A-I (10 μg/ml, Biodesign International, Kennebunk, Me.) was added and the cells were incubated for 4, 24, or 48 hours. […] The radioactivity found in the culture medium was measured by scintillation counting after a 15-minute centrifugation at 12,000 g. The radioactivity in the cells was measured by scintillation counting after solubilization in 0.5 ml of 0.2M NaOH (Smith et al., J. Biol. Chem., 271:30647-30655 (1996)) or extraction in hexane:isopropanol (3:2 v/v) as described in Francis, et al., J. Clin. Invest., 96, 78-87 (1995). […] The efflux of cholesterol or phospholipid was expressed as the percentage of tritiated lipid counts in the medium over the total tritiated lipid counts recovered from the cells and medium (cpm medium/cpm (medium+lysate)×100).
Briefly, RAW 264.7 cells suspended at a density of 1.25×10^5 cells/ml were grown in DMEM/10% FBS supplemented with pyruvate. After 24 hours, the medium was removed and replaced with DMEM/BSA plus radiolabeled cholesterol (1 μCi/ml ^3[H]-cholesterol) and 50 μg/ml of acetylated LDL for 24 hours. The cells were then maintained for 24 hours in equilibrium medium consisting of DMEM/BSA plus either apo A-I alone (20 μg/ml), apo A-I and 8-bromo 3′, 5′ cAMP (1 mM) or apo A-I and rolipram (50 μM).

[6] = system: ABC1 protein; assay: Cell-surface ABC1 protein by biotin labeling and immunoprecipitation; assay type: cell-based, human; details: serum deprivation and cholesterol-loading (30 μg/ml, 48 h), normal and TD1 cells
Protocol: Cell-surface labeling and immunoprecipitation was used to determine whether increased expression of ABC1 protein in the plasma membrane is correlated with an increase in cholesterol efflux (FIG. 10). The relative amount of ABC1 on the cell surface was determined by cross-linking surface proteins on intact cells with the membrane-impermeable agent sulfo-NHS-biotin, followed by the steps of membrane solubilization, immunoprecipitation with ABC1 antibody, SDS-PAGE, and detection with streptavidin.
Both normal and TD1 cells were cultured under control conditions and conditions known to increase apolipoprotein-mediated cholesterol efflux (Oram, et al., J. Lip. Res., 40: 1769-1781 (1999)). […] Cholesterol-loaded cells were grown to confluence in DMEM/10% FBS and then incubated in DMEM/BSA for 48 hours with 30 μg/ml cholesterol plus 18 hours with no additives (cholesterol). […]
Detection of ABC1 Protein: The eluted biotinylated proteins were subjected to SDS-PAGE (6% gel; 150V, 5 hours) and transferred to nitrocellulose membrane (200 mA, 18 hours). The nitrocellulose was probed with streptavidin-horse radish peroxidase (Amersham Pharmacia, Piscataway, N.J.; Cat. #RPN 1231) diluted 300-fold and detected by enhanced chemiluminescence labeling (ECL) according to vendor's protocol (Amersham Pharmacia, Piscataway, N.J.). […]

Compound | efflux of [3H]-cholesterol on addition to albumin medium [1] | efflux of [3H]-cholesterol on addition to albumin medium [2] | ABC1 mRNA expression on subsequent exposure of cholesterol-loaded cells [3] | ABC1 expression on exposure of cholesterol-loaded cells ([4]; TD1 cells) | ABC1 expression on exposure of cholesterol-loaded cells ([4]; TD2 cells) | cholesterol efflux [5] [c.p.m.] | cell-surface expression of ABC1 [6]
apo A-I: apolipoprotein cholesterol acceptor (Biodesign International) | promoted the efflux | little or no effect | marked decrease | did not alter ABC1 expression | slightly increased ABC1 expression | 1890 | –
CC(C)CCC[C@@H](C)[C@H]1CC[C@H]2[C@@H]3CC=C4C[C@@H](O)CC[C@]4(C)[C@H]3CC[C@]12C [cholesterol] | – | – | – | – | – | – | markedly increased
